Measured values reported in PubChem BioAssay AID256 (DTP/NCI, 2004).
Values joined by “and” are separate entries in the source; they are usually repeats but may differ in a detail not shown here. Equal entries are not always repeated. Inconclusive results and toxic doses are left out. How the source made its calls: active means survival T/C of 150% or more; inactive means T/C below 125% in these data.

Tested on: CD2F1 mice, L1210 leukemia ip, survival T/C
Assay: NCI In Vivo Anticancer Drug Screen. Data for tumor model L1210 Leukemia (intraperitoneal) in CD2F1 (CDF1) mice
Conditions: higher = longer survival
Procedure, shortened: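 Activity against a transplanted murine tumor was judged by comparing the compound group with a vehicle group. The outcome in the treated animals was divided by that in the controls.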

[1] = endpoint: mean survival time, dose: 100.0 mg/kg/injection, schedule: Q01DX009 (ip), vehicle: saline with Tween-80
[2] = endpoint: mean survival time, dose: 200.0 mg/kg/injection, schedule: Q01DX009 (ip), vehicle: saline with Tween-80
[3] = endpoint: mean survival time, dose: 400.0 mg/kg/injection, schedule: Q01DX009 (ip), vehicle: saline with Tween-80
[4] = endpoint: mean survival time, dose: 200.0 mg/kg/injection, schedule: Q01DX009 (ip), vehicle: saline
[5] = endpoint: mean survival time, dose: 100.0 mg/kg/injection, schedule: Q01DX001 (ip), vehicle: saline with Tween-80
[6] = endpoint: mean survival time, dose: 200.0 mg/kg/injection, schedule: Q01DX001 (ip), vehicle: saline with Tween-80
[7] = endpoint: mean survival time, dose: 400.0 mg/kg/injection, schedule: Q01DX001 (ip), vehicle: saline with Tween-80
[8] = endpoint: mean survival time, dose: 100.0 mg/kg/injection, schedule: Q04DX003 (ip), vehicle: saline with Tween-80
[9] = endpoint: mean survival time, dose: 200.0 mg/kg/injection, schedule: Q04DX003 (ip), vehicle: saline with Tween-80
[10] = endpoint: mean survival time, dose: 400.0 mg/kg/injection, schedule: Q04DX003 (ip), vehicle: saline with Tween-80
[11] = endpoint: mean survival time, dose: 25.0 mg/kg/injection, schedule: Q04DX002 (ip), vehicle: saline with Tween-80
[12] = endpoint: mean survival time, dose: 50.0 mg/kg/injection, schedule: Q04DX002 (ip), vehicle: saline with Tween-80
[13] = endpoint: mean survival time, dose: 25.0 mg/kg/injection, schedule: Q04DX003 (ip), vehicle: saline

Measured: T/C

CCNC1=C(C)C(=O)C2=C(C1=O)C(COC(N)=O)C1(O)C3C(CN21)N3C (stereo not given)
inactive: endpoint: mean survival time, dose: 1.5 mg/kg/injection, schedule: Q01DX001 (ip), vehicle: saline 98 % of control | endpoint: mean survival time, dose: 3.0 mg/kg/injection, schedule: Q01DX001 (ip), vehicle: saline 95 % of control | endpoint: mean survival time, dose: 6.0 mg/kg/injection, schedule: Q01DX001 (ip), vehicle: saline 101 % of control | endpoint: mean survival time, dose: 12.0 mg/kg/injection, schedule: Q01DX001 (ip), vehicle: saline 93 % of control | endpoint: mean survival time, dose: 24.0 mg/kg/injection, schedule: Q01DX001 (ip), vehicle: saline 95 % of control | endpoint: mean survival time, dose: 30.0 mg/kg/injection, schedule: Q01DX001 (ip), vehicle: water 100 % of control | endpoint: mean survival time, dose: 60.0 mg/kg/injection, schedule: Q01DX001 (ip), vehicle: water 101 % of control

C=C1[C@@H](O)[C@]2(O)OC[C@@]34[C@H]1[C@@H](OC(=O)C(C)CC)C(=O)O[C@@H]3C[C@H]1C(C)=CC(=O)[C@@H](O)[C@]1(C)[C@@H]24 (stereo not given in full)
inactive: endpoint: mean survival time, dose: 0.25 mg/kg/injection, schedule: Q01DX009 (ip), vehicle: saline with Tween-80 102 % of control | endpoint: mean survival time, dose: 0.5 mg/kg/injection, schedule: Q01DX009 (ip), vehicle: saline with Tween-80 105 % of control | endpoint: mean survival time, dose: 1.0 mg/kg/injection, schedule: Q01DX009 (ip), vehicle: saline with Tween-80 105 % of control | endpoint: mean survival time, dose: 2.0 mg/kg/injection, schedule: Q01DX009 (ip), vehicle: saline with Tween-80 108 % of control

COc1ccc(OC)c(C)c1
inactive: [1] 105 % of control | [2] 107 % of control | [3] 104 % of control

NC(CSC(c1ccccc1)(c1ccccc1)c1cccs1)C(=O)O (stereo not given)
inactive: endpoint: mean survival time, dose: 25.0 mg/kg/injection, schedule: Q01DX009 (ip), vehicle: saline 92 % of control | endpoint: mean survival time, dose: 100.0 mg/kg/injection, schedule: Q01DX009 (ip), vehicle: saline 86 % of control | [4] 95 % of control

C[C@]12CC[C@H](O)C[C@@]1(O)CC[C@@H]1[C@@H]2CC[C@]2(C)[C@@H](c3ccc(=O)oc3)C[C@H]3O[C@]132
inactive: endpoint: mean survival time, dose: 2.5 mg/kg/injection, schedule: Q01DX009 (ip), vehicle: other 97 % of control | endpoint: mean survival time, dose: 5.0 mg/kg/injection, schedule: Q01DX009 (ip), vehicle: other 92 % of control | endpoint: mean survival time, dose: 10.0 mg/kg/injection, schedule: Q01DX009 (ip), vehicle: other 91 % of control

O=C(O)C1C2CCC1C(O)C2 (stereo not given)
inactive: [1] 94 % of control | [2] 94 % of control | [3] 88 % of control

CC(C)CCC(C(=O)O)C(=O)O
inactive: endpoint: mean survival time, dose: 75.0 mg/kg/injection, schedule: Q01DX001 (ip), vehicle: saline 96 % of control | endpoint: mean survival time, dose: 150.0 mg/kg/injection, schedule: Q01DX001 (ip), vehicle: saline 102 % of control

Nc1nc(=O)n(CCCOc2cccc(NC(=O)c3cccc(S(=O)(=O)F)c3)c2)cc1-c1ccc(Cl)c(Cl)c1
inactive: [5] 87 % of control | [6] 90 % of control | [7] 87 % of control

C1=CC2c3ccc4ccccc4c3C(c3ccccc3)C2C=C1 (stereo not given)
inactive: [8] 108 % of control | [9] 96 % of control | [10] 102 % of control

COC(=O)c1ccc(SSc2ccc(C(=O)OC)cc2[N+](=O)[O-])c([N+](=O)[O-])c1
inactive: [8] 103 % of control | [9] 96 % of control | [10] 96 % of control

Cc1cc2ccc(OC(=O)c3ccc(N=C(N)N)cc3)cc2oc1=O
inactive: [1] 91 % of control | [2] 91 % of control | [3] 86 % of control

[Br][Ni][Br].[NH-]CC[NH-].[NH-]CC[NH-]
inactive: [11] 104 % of control | [12] 110 % of control

c1ccc2c(c1)Sc1ccccc1N2CCCNC1=NCCO1
inactive: [11] 97 % of control | [12] 94 % of control | [5] 89 % of control | endpoint: mean survival time, dose: 100.0 mg/kg/injection, schedule: Q04DX002 (ip), vehicle: saline with Tween-80 94 % of control

CNC(=S)NC1CCCCC1
inactive: [8] 97 % of control | [9] 100 % of control | [10] 89 % of control

CN(C)[C@@H]1C(=O)C(C(=O)NCNC(CO)(CO)CO)=C(O)[C@@]2(O)C(=O)C3=C(O)c4c(O)cccc4[C@@](C)(O)[C@H]3C[C@@H]12
inactive: [4] 93 % of control | endpoint: mean survival time, dose: 264.0 mg/kg/injection, schedule: Q01DX009 (ip), vehicle: acetone 97 % of control | endpoint: mean survival time, dose: 300.0 mg/kg/injection, schedule: Q01DX009 (ip), vehicle: saline 98 % of control | endpoint: mean survival time, dose: 400.0 mg/kg/injection, schedule: Q01DX009 (ip), vehicle: acetone 92 % of control

O=c1[nH]c(C(Cl)(Cl)Cl)nc2ccc(Cl)cc12
inactive: [8] 101 % of control | [9] 96 % of control | [10] 98 % of control

NS(=O)(=O)Cc1ccccc1
inactive: [13] 107 % of control | endpoint: mean survival time, dose: 50.0 mg/kg/injection, schedule: Q04DX003 (ip), vehicle: saline 117 % of control | endpoint: mean survival time, dose: 100.0 mg/kg/injection, schedule: Q04DX003 (ip), vehicle: saline 90 % of control and 92 % of control

c1ccc(-c2nnc(-c3ccccc3)nn2)cc1
inactive: [1] 98 % of control | [8] 98 % of control | [2] 98 % of control | [9] 101 % of control | [3] 95 % of control | [10] 96 % of control

NCC1OC(n2cnc3c(N)ncnc32)C(O)C1O (stereo not given)
inactive: endpoint: mean survival time, dose: 12.5 mg/kg/injection, schedule: Q01DX005 (ip), vehicle: Klucel (hydroxypropylcellulose) (HPC) 109 % of control | endpoint: mean survival time, dose: 25.0 mg/kg/injection, schedule: Q01DX005 (ip), vehicle: Klucel (hydroxypropylcellulose) (HPC) 107 % of control | endpoint: mean survival time, dose: 50.0 mg/kg/injection, schedule: Q01DX005 (ip), vehicle: Klucel (hydroxypropylcellulose) (HPC) 115 % of control | endpoint: mean survival time, dose: 100.0 mg/kg/injection, schedule: Q01DX005 (ip), vehicle: Klucel (hydroxypropylcellulose) (HPC) 115 % of control

CN(C)C(=O)OCC#CCOC(=O)N(C)C
inactive: endpoint: mean survival time, dose: 100.0 mg/kg/injection, schedule: Q04DX002 (ip), vehicle: saline 101 % of control | endpoint: mean survival time, dose: 200.0 mg/kg/injection, schedule: Q04DX002 (ip), vehicle: saline 86 % of control

CC(CC(=O)O)c1ccc(F)cc1 (stereo not given)
inactive: [8] 101 % of control | [9] 100 % of control | [10] 95 % of control

COC(=O)c1cccc(OCC(=O)Nc2ccccc2)c1
inactive: [5] 101 % of control | [6] 93 % of control | [7] 92 % of control

C[n+]1ccccc1/C=C/c1ccccn1
inactive: endpoint: mean survival time, dose: 5.3 mg/kg/injection, schedule: Q01DX009 (ip), vehicle: saline with Tween-80 97 % of control | endpoint: mean survival time, dose: 6.25 mg/kg/injection, schedule: Q04DX003 (ip), vehicle: saline 95 % of control | endpoint: mean survival time, dose: 8.0 mg/kg/injection, schedule: Q01DX009 (ip), vehicle: saline with Tween-80 100 % of control | endpoint: mean survival time, dose: 12.0 mg/kg/injection, schedule: Q01DX009 (ip), vehicle: saline with Tween-80 100 % of control | endpoint: mean survival time, dose: 12.5 mg/kg/injection, schedule: Q04DX003 (ip), vehicle: saline 98 % of control | endpoint: mean survival time, dose: 18.0 mg/kg/injection, schedule: Q01DX009 (ip), vehicle: saline with Tween-80 92 % of control | [13] 92 % of control

O=C1C(F)=C(F)C(=O)C(F)=C1F
inactive: endpoint: mean survival time, dose: 3.12 mg/kg/injection, schedule: Q01DX009 (ip), vehicle: Klucel (hydroxypropylcellulose) (HPC) 97 % of control | endpoint: mean survival time, dose: 6.25 mg/kg/injection, schedule: Q01DX009 (ip), vehicle: Klucel (hydroxypropylcellulose) (HPC) 98 % of control

COC(=O)c1ccc(C(=O)CC(=O)c2ccccc2)cc1
inactive: endpoint: median survival time, dose: 25.0 mg/kg/injection, schedule: Q04DX003 (ip), vehicle: saline with Tween-80 100 % of control | endpoint: median survival time, dose: 50.0 mg/kg/injection, schedule: Q04DX003 (ip), vehicle: saline with Tween-80 88 % of control | endpoint: median survival time, dose: 100.0 mg/kg/injection, schedule: Q04DX003 (ip), vehicle: saline with Tween-80 88 % of control | endpoint: median survival time, dose: 200.0 mg/kg/injection, schedule: Q04DX003 (ip), vehicle: saline with Tween-80 88 % of control

CCOC(=O)C(Cc1ccc(Cl)cc1)P(=O)(OCC)OCC (stereo not given)
inactive: endpoint: mean survival time, dose: 100.0 mg/kg/injection, schedule: Q01DX001 (ip), vehicle: saline 106 % of control | endpoint: mean survival time, dose: 200.0 mg/kg/injection, schedule: Q01DX001 (ip), vehicle: saline 101 % of control | endpoint: mean survival time, dose: 400.0 mg/kg/injection, schedule: Q01DX001 (ip), vehicle: saline 106 % of control
